Among the data in patent US12686673B2 (Blueprint Medicines Corporation, priority 2020, dated 2026) are GI50 and IC50 values, retold here.

By pIC50 is commonly meant the IC50 on a negative log10 scale, so that one unit is a factor of ten.

What all share (format): cell-based
In assay [1] the target is EGFR(D770_N771insSVD) expressing Ba/F3 stable cell line (Homo sapiens, UniProt P00533, DUP768-770, cells depend on it). Put plainly: Cellular proliferation (Alamar Blue) assay, EGFR D770_N771insSVD Ba/F3. Conditions: 72 hr, read-out: D770 IC50. Put shortly: (§1)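 Proliferation of mutant-dependent Ba/F3 lines is measured by Alamar Blue reduction over 3 hours, following a 72 hr incubation with test compound spanning 10-0.0005 μM final in threefold dilutions. Cells go in at 15,000 per well in RPMI containing 10% FBS the day before dosing.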
Sequence of EGFR(D770_N771insSVD) expressing Ba/F3 stable cell line (P00533 with tags, fused parts or gaps DUP768-770): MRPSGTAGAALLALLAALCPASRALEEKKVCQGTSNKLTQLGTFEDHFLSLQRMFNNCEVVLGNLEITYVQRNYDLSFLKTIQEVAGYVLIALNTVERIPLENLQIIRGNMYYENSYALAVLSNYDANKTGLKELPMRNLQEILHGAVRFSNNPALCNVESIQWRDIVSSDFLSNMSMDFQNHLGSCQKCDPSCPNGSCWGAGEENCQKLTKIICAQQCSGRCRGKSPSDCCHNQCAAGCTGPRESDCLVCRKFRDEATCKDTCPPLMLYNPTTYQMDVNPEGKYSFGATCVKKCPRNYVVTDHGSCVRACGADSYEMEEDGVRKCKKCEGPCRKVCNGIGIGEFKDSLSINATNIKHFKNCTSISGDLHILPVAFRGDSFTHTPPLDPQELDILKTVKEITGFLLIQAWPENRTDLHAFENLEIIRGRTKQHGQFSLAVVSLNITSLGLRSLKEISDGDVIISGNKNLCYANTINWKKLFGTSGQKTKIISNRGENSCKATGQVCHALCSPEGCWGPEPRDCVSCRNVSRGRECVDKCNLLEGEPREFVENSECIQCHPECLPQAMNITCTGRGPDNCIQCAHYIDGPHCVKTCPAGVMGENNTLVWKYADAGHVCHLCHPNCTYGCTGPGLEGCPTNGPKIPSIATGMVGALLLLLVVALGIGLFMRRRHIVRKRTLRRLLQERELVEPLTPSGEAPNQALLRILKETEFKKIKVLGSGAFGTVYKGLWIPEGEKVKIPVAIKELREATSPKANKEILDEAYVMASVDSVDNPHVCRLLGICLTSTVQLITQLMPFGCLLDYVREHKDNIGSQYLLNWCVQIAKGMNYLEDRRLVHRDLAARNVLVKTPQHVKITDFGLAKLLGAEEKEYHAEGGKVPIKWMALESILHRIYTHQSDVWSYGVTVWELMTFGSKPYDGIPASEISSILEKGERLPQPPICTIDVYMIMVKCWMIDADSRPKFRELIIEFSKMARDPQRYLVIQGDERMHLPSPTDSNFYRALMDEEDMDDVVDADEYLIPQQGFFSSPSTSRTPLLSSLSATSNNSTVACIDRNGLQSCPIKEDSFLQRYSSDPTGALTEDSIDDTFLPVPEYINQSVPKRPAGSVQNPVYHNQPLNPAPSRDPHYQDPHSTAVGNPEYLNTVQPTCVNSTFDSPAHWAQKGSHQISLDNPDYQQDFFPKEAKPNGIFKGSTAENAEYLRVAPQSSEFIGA
(Resazurin is reduced to fluorescent resorufin, in cell work by metabolically active cells.)

The target in assay [2] is EGFR (A767_dupASV) expressing Ba/F3 stable cell line (Homo sapiens, UniProt P00533, DUP767-769, cells depend on it). The assay can be described thus: Cellular proliferation (Alamar Blue) assay, EGFR A767_dupASV Ba/F3. Conditions: 72 hr, read-out: A767 IC50. The method, boiled down: as §1
Sequence of EGFR (A767_dupASV) expressing Ba/F3 stable cell line (P00533 with tags, fused parts or gaps DUP767-769): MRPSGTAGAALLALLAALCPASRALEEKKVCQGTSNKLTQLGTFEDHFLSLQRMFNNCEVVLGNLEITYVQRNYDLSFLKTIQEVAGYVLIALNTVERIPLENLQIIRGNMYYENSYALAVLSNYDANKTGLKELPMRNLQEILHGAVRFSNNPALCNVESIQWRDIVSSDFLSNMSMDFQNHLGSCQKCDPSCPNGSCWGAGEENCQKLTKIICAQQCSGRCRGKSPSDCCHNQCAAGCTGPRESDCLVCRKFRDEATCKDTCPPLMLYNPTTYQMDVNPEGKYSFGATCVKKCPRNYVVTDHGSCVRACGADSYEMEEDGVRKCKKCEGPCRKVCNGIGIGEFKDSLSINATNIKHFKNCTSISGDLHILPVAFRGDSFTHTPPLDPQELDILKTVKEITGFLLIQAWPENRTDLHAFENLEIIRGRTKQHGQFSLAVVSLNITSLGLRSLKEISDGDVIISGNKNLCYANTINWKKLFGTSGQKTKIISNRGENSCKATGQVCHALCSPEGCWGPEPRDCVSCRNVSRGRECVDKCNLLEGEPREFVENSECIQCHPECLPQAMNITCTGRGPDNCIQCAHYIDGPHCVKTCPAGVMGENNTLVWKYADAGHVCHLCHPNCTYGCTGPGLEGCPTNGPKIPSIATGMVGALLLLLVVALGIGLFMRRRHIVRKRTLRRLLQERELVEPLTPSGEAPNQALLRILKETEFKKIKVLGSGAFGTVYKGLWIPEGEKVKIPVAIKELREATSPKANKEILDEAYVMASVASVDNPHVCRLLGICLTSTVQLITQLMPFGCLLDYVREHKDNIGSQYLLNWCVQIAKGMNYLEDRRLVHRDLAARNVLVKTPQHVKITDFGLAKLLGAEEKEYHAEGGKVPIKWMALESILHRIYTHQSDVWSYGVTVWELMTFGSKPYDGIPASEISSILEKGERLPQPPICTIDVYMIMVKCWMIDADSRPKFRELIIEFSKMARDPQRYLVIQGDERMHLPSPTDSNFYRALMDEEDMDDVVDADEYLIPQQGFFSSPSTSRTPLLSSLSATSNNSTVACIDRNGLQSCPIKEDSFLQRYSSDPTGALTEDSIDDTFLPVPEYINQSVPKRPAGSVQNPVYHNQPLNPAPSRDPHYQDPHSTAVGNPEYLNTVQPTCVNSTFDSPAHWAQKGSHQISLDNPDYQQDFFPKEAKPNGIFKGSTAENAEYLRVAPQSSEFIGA
For another assay, the system named is A431 cells. The assay can be described thus: Cellular proliferation (Alamar Blue) assay, A431.
For assay [3], the target named is EGFR (H773insNPH) expressing Ba/F3 stable cell line (Homo sapiens, UniProt P00533, DUP771-773, cells depend on it). Put plainly: Cellular proliferation (Alamar Blue) assay, EGFR H773insNPH Ba/F3. Conditions: 72 hr, read-out: NPH IC50. On the procedure: • 1. EGFR(D770_N771insSVD) expressing Ba/F3 stable cell line • 2. EGFR (A767_dupASV) expressing Ba/F3 stable cell line • 3. A431 cells • 4. EGFR (H773insNPH) expressing Ba/F3 stable cell line • 5. HER2 (A775_G776insYVMA) expressing Ba/F3 stable cell line Assay Procedure: • 1. Seed cells at 5000 for A431 and 15,000 cells for Ba/F3 in 100 μL/well in complete media (for A431: DMEM with […] and for Ba/F3 cells: RPMI with 10% FBS) in 96-well tissue culture plate. Leave outer wells without cells for background measurements. Incubate at 37 degree Celsius in […] humidified incubator for 16-18 hours. • 2. Add 0.025 ml of 5× concentration compound dilution or DMSO control. Final compound concentration range is 10-0.0005 μM prepared in 3-fold serial dilutions. Incubate for 72 hr at 37 degree Celsius in […] humidified incubator. • 3. Add 0.0125 ml Alamar Blue™ reagent to each well with multi-channel pipette and tap gently on each side of the plate to mix. Incubate for 3 hours at 37 degree Celsius in 5% CO2 humidified incubator. • 4. […] Data analysis was performed using XLfit 5.5.0.5.
Sequence of EGFR (H773insNPH) expressing Ba/F3 stable cell line (P00533 with tags, fused parts or gaps DUP771-773): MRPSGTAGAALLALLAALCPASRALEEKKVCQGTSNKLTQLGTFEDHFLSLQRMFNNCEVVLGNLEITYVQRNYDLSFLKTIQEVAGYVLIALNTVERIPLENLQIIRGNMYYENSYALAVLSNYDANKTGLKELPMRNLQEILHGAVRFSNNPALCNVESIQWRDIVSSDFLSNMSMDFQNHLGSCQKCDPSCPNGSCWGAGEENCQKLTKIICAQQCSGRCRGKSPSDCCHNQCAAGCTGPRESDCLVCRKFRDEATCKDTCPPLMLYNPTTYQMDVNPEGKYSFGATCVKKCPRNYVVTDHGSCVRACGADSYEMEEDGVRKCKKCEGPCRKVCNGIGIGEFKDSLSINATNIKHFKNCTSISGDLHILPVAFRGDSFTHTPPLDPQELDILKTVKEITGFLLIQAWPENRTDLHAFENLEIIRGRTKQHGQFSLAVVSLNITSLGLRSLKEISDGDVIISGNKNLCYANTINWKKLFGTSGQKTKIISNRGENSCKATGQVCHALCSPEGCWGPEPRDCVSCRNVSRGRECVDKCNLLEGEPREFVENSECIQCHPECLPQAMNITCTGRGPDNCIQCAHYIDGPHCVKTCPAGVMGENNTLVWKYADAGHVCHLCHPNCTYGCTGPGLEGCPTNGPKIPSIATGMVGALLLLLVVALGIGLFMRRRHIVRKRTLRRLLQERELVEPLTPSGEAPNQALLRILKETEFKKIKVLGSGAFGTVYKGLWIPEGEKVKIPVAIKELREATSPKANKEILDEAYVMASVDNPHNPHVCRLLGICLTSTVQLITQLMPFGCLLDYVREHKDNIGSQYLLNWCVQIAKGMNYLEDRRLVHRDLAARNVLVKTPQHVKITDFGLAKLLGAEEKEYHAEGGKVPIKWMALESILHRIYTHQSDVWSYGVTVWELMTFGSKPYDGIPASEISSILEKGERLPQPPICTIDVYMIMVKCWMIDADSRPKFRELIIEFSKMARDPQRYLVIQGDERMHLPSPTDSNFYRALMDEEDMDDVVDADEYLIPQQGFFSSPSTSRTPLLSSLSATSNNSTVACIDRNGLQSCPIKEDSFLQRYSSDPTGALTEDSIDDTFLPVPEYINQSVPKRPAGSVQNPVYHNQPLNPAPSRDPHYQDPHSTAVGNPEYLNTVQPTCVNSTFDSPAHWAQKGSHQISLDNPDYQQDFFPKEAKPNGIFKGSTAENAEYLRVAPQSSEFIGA

The target in assay [4] is HER2 (A775_G776insYVMA) expressing Ba/F3 stable cell line (Homo sapiens, UniProt P04626, DUP772-775, cells depend on it). Put plainly: Cellular proliferation (Alamar Blue) assay, HER2 A775_G776insYVMA Ba/F3. To be noted: 72 hr, read-out: YVMA IC50. Put shortly:
as §1

Where [5] appears, read: Homo sapiens, A-431; A431 cells, Alamar Blue, 72 hr; read-out: A431 IC50.
Setting [6] is: Homo sapiens, A-431; A431 cells, 72 hr, Alamar Blue; read-out: A431 IC50.

Each structure is given as a SMILES string. pIC50: −log10 of the molar value. Counter-ions that a name gives are not always drawn. Like-named read-outs stand apart in the source and are kept apart here.

Sequence of HER2 (A775_G776insYVMA) expressing Ba/F3 stable cell line (P04626 with tags, fused parts or gaps DUP772-775): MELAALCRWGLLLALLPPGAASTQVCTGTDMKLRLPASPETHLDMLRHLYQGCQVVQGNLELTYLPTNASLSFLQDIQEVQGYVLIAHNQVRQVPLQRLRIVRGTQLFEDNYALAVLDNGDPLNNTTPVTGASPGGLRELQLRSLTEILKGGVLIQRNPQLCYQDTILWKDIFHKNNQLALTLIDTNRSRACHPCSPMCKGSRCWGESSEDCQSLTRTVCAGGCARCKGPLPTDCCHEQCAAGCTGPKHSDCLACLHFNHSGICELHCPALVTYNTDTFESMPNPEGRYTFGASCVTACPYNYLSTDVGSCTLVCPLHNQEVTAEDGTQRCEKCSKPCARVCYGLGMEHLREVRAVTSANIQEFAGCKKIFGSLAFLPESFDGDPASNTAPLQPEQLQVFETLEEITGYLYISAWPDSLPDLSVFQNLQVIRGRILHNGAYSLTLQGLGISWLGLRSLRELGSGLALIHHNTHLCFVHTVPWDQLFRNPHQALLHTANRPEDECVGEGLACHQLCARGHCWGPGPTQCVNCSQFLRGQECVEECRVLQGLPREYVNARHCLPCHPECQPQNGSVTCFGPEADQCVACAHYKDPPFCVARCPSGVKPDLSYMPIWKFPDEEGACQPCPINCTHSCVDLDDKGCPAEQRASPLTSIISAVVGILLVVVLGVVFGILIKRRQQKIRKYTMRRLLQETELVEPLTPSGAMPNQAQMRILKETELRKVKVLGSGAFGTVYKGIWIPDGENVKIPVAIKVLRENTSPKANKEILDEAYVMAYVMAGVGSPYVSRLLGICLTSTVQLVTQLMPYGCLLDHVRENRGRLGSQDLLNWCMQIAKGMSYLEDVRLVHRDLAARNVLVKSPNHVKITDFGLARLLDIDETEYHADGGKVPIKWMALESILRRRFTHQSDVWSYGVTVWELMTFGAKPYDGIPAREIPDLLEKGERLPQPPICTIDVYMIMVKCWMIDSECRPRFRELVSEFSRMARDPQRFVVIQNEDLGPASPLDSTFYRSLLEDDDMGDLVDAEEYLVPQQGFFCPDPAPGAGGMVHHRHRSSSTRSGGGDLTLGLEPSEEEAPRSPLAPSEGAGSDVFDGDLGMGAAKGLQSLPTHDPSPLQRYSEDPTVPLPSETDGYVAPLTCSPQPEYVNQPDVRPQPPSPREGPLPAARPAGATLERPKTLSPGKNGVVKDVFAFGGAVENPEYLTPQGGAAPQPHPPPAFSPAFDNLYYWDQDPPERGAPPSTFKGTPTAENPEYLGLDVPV

As to `C=CC(=O)Nc1ccc(F)c(Oc2nc(Nc3cnn(C)c3)ncc2-c2ccc(C(F)(F)F)cc2)c1` [Compound 152, N-(4-fluoro-3-((2-((1-methyl-1H-pyrazol-4-yl)amino)-5-(4-(trifluoromethyl)phenyl)pyrimidin-4-yl)oxy)phenyl)acrylamide], the GI50 in assay [1] was found to be 173 nM; in assay [2], 300 nM; in assay [3] it was 407 nM; in assay [4] it was 651 nM. For the same compound, in the assay with A431 cells (setting [5]), the pIC50 was 5.46.
For `C=CC(=O)Nc1ccc(F)c(Nc2nc(Nc3ccc(CN(C)C)cc3)ncc2-c2ccc(C(F)(F)F)cc2)c1` [Compound 45, N-(3-((2-((4-((dimethylamino)methyl)phenyl)amino)-5-(4-(trifluoromethyl)phenyl)pyrimidin-4-yl)amino)-4-fluorophenyl)acrylamide trifluoroacetate], in that order: 105 nM, 238 nM, 149 nM, 134 nM and 7.57.
Take `C=CC(=O)Nc1ccc(F)c(Nc2nc(Nc3cnn(C)c3)ncc2-c2ccccc2)c1` [Compound 93, N-(4-fluoro-3-((2-((1-methyl-1H-pyrazol-4-yl)amino)-5-phenylpyrimidin-4-yl)amino)phenyl)acrylamide]: the GI50 was 121 nM in assay [1], 315 nM in assay [2], 148 nM in assay [3] and 465 nM in assay [4]. Moreover, in the assay with A431 cells (setting [5]), the pIC50 is < 5.00.
As for `C=CC(=O)Nc1ccc(F)c(Nc2nc(Nc3cnn(CCN(C)C)c3)ncc2-c2ccc(C(F)(F)F)cc2)c1` [Compound 72, N-(3-((2-((1-(2-(dimethylamino)ethyl)-1H-pyrazol-4-yl)amino)-5-(4-(trifluoromethyl)phenyl)pyrimidin-4-yl)amino)-4-fluorophenyl)acrylamide trifluoroacetate], the GI50 in assay [1] was 99 nM; in assay [2], 108 nM; in assay [3], 95 nM; in assay [4] it was 129 nM. Moreover, the pIC50 in the assay on A431 cells (setting [5]) is 7.10.
Take `C=CC(=O)Nc1cccc(Oc2nc(Nc3cnn(C)c3)ncc2-c2ccc(F)nc2)c1` [Compound 109, N-(3-((5-(6-fluoropyridin-3-yl)-2-((1-methyl-1H-pyrazol-4-yl)amino)pyrimidin-4-yl)oxy)phenyl)acrylamide]: the GI50 in assay [1] is 100 nM; in assay [2], 53 nM; in assay [3], 112 nM; in assay [4] it was 344 nM. Moreover, the pIC50 with A431 cells (setting [5]) is 6.21.
Regarding `C=CC(=O)Nc1ccc(F)c(Nc2nc(Nc3cnn(C)c3)ncc2-c2cncc(C(F)F)c2)c1` [Compound 110, N-(3-((5-(5-(difluoromethyl)pyridin-3-yl)-2-((1-methyl-1H-pyrazol-4-yl)amino)pyrimidin-4-yl)amino)-4-fluorophenyl)acrylamide], the results for the GI50 in assay [1], in assay [3] and in assay [4] were 34 nM, 34 nM and 30 nM, respectively. Besides, in the assay on A431 cells (setting [5]), the pIC50 was 6.51.
As to `C=C(F)C(=O)Nc1ccc(F)c(Nc2nc(Nc3cnn(C)c3)ncc2Cl)c1` [Compound 23, N-(3-((5-chloro-2-((1-methyl-1H-pyrazol-4-yl)amino)pyrimidin-4-yl)amino)-4-fluorophenyl)-2-fluoroacrylamide], the GI50 in assay [1] is > 10000 nM; in assay [2] it was 9920 nM; in assay [3], 4470 nM. Besides, in the assay on A431 cells (setting [5]), the pIC50 was < 5.00.
In the case of `C=CC(=O)Nc1ccc(F)c(Nc2nc(Nc3ccc(OC)nc3)ncc2Cl)c1` [Compound 22, N-(3-((5-chloro-2-((6-methoxypyridin-3-yl)amino)pyrimidin-4-yl)amino)-4-fluorophenyl)acrylamide], the GI50 in assay [1] was 7950 nM; in assay [2], 3000 nM; in assay [3], 4740 nM. In addition, in the assay on A431 cells (setting [5]), the negative-log IC50 (pIC50) was 5.15.
As for `Cn1cc(Nc2ncc(-c3ccc(C(F)(F)F)cc3)c(Nc3cc(NC(=O)CCl)ccc3F)n2)cn1` [Compound 252, 2-chloro-N-[4-fluoro-3-({2-[(1-methyl-1H-pyrazol-4-yl)amino]-5-[4-(trifluoromethyl)phenyl]pyrimidin-4-yl}amino)phenyl]acetamide], the GI50 in assay [1] amounted to 1420 nM; in assay [2], 5960 nM; in assay [3] it was 2810 nM. For the same compound, in the assay with A431 cells (setting [6]), the negative logarithm of the IC50 (pIC50) is 5.93.
Consider `C=CC(=O)Nc1cccc(Nc2nc(Nc3cnn(C)c3)ncc2-c2ccc(OC)nc2)c1` [Compound 118, N-(3-((5-(6-methoxypyridin-3-yl)-2-((1-methyl-1H-pyrazol-4-yl)amino)pyrimidin-4-yl)amino)phenyl)acrylamide trifluoroacetate], for which the GI50 in assay [2] came out at 36 nM; in assay [3], 29 nM; in assay [4], 57 nM. In the assay with A431 cells (setting [5]), the negative logarithm of the IC50 (pIC50) was 6.79.
Regarding `C=C(F)C(=O)NC1CCCC(Nc2nc(Nc3cnn(C)c3)ncc2Cl)C1` (stereo not shown) [Compound 24], the GI50 in assay [1] was > 10000 nM; in assay [2], > 10000 nM; in assay [3], 4130 nM. Moreover, the pIC50 with A431 cells (setting [5]) is < 5.00.
With `COc1cc(N2CCCCC2)ccc1Nc1ncc(C(=O)N(C)c2ccccc2)c(Nc2cccc(NC(=O)/C=C/CN(C)C)c2)n1` [Compound 52, (E)-4-((3-(4-(dimethylamino)but-2-enamido)phenyl)amino)-2-((2-methoxy-4-(piperidin-1-yl)phenyl)amino)-N-methyl-N-phenylpyrimidine-5-carboxamide], the GI50 is 3260 nM in assay [1], 982 nM in assay [2] and > 10000 nM in assay [3]. Moreover, the negative logarithm of the IC50 (pIC50) in the assay with A431 cells (setting [5]) is 5.18.
Take `C=CC(=O)Nc1ccc(F)c(Nc2nc(Nc3cnn(C)c3)ncc2-c2cncc(C(F)(F)F)c2)c1` [Compound 56, N-(4-fluoro-3-((2-((1-methyl-1H-pyrazol-4-yl)amino)-5-(5-(trifluoromethyl)pyridin-3-yl)pyrimidin-4-yl)amino)phenyl)acrylamide]: in the assay with A431 cells (setting [5]), the pIC50 is 7.47. Also, the figures for the GI50 in assay [3] and in assay [4] were 41 nM and 92 nM, respectively.
`C=CC(=O)Nc1ccc(F)c(Nc2nc(Nc3cnn(C)c3)ncc2-c2ccc(C)nc2)c1` [Compound 66, N-(4-fluoro-3-((2-((1-methyl-1H-pyrazol-4-yl)amino)-5-(6-methylpyridin-3-yl)pyrimidin-4-yl)amino)phenyl)acrylamide]: the GI50 is 35 nM in assay [2], 73 nM in assay [3] and 50 nM in assay [4]. Moreover, in the assay with A431 cells (setting [5]), the pIC50 is 6.86.
With `C=CS(=O)(=O)Nc1ccc(F)c(Nc2nc(Nc3cnn(C)c3)ncc2-c2ccc(C(F)(F)F)cc2)c1` [Compound 253, N-[4-fluoro-3-({2-[(1-methyl-1H-pyrazol-4-yl)amino]-5-[4-(trifluoromethyl)phenyl]pyrimidin-4-yl}amino)phenyl] ethene-1-sulfonamide], the GI50 in assay [1] was 8450 nM; in assay [2] it was 8750 nM; in assay [3], > 10000 nM. Besides, the pIC50 in the assay with A431 cells (setting [6]) is 5.40.
In the case of `CN(C)C/C=C/C(=O)Nc1cccc(Nc2nc(Nc3cn(C)nc3Cl)ncc2-c2ccc(C(F)(F)F)cc2)c1` [Compound 53, (E)-N-(3-((2-((3-chloro-1-methyl-1H-pyrazol-4-yl)amino)-5-(4-(trifluoromethyl)phenyl)pyrimidin-4-yl)amino)phenyl)-4-(dimethylamino)but-2-enamide], the GI50 was determined as 873 nM in assay [1], 1020 nM in assay [2] and 1890 nM in assay [3]. For the same compound, the pIC50 with A431 cells (setting [5]) was 5.14.
For `C=CC(=O)Nc1ccc(F)c(Nc2nc(Nc3cnn(C)c3)ncc2-c2ccc3nccn3c2)c1` [Compound 133, N-(4-fluoro-3-((5-(imidazo[1,2-a]pyridin-6-yl)-2-((1-methyl-1H-pyrazol-4-yl)amino)pyrimidin-4-yl)amino)phenyl)acrylamide trifluoroacetate], in that order: 294 nM, 388 nM, 323 nM and 6.80.
For `C=C(F)C(=O)N1CCCC(Nc2nc(Nc3cnn(C)c3)ncc2Cl)C1` (stereo not shown) [Compound 25, 1-(3-((5-chloro-2-((1-methyl-1H-pyrazol-4-yl)amino)pyrimidin-4-yl)amino)piperidin-1-yl)-2-fluoroprop-2-en-1-one], in that order: > 10000 nM, > 10000 nM, > 10000 nM and < 5.00.
